Assay results from PubChem BioAssay (NCI).
Values joined by “and” are separate entries in the source; they are usually repeats but may differ in a detail not shown here. Identical values can stand only once.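 Cells were grown in 96-well plates and exposed to each compound for 48 hours at five concentrations; endpoints were interpolated linearly between bracketing concentrations, or set to the highest concentration if not reached. GI50: concentration for 50% inhibition of growth. The concentration for full growth arrest is given as TGI.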

Key:
Assay in all cases: inhibition of tumour cell growth, NCI panel, 48 h
HOP-62 NSCLC = system: HOP-62 NSCLC
SK-OV-3 ovarian = system: SK-OV-3 ovarian
OVCAR-3 ovarian = system: OVCAR-3 ovarian
CAKI-1 renal = system: CAKI-1 renal
A549 NSCLC = system: A549 NSCLC
SF-295 CNS = system: SF-295 CNS
HCC-2998 colon = system: HCC-2998 colon
SF-268 CNS = system: SF-268 CNS
MDA-MB-435 = system: MDA-MB-435
EKVX NSCLC = system: EKVX NSCLC

Structure (SMILES) | GI50 (HOP-62 NSCLC) [nM] | TGI (HOP-62 NSCLC) | GI50 (SK-OV-3 ovarian) [µM] | TGI (SK-OV-3 ovarian) | GI50 (OVCAR-3 ovarian) | TGI (OVCAR-3 ovarian) | TGI (CAKI-1 renal) | GI50 (A549 NSCLC) [nM] | TGI (A549 NSCLC) | GI50 (SF-295 CNS) | TGI (SF-295 CNS) | GI50 (HCC-2998 colon) [nM] | TGI (HCC-2998 colon) | GI50 (SF-268 CNS) [nM] | TGI (SF-268 CNS) | TGI (MDA-MB-435) [nM] | TGI (EKVX NSCLC) | GI50 (EKVX NSCLC) [nM] | GI50 (CAKI-1 renal) [nM] | GI50 (MDA-MB-435) [nM]
O=C(NCCN1CCOCC1)Nc1nc2ccc(Sc3nnc4ccc(-c5ccc(F)cc5)nn34)cc2s1 | > 20800 | > 100 µM | > 100 | > 100 µM | > 100000 nM | > 100 µM | > 100 µM | > 100000 | > 100 µM | 101 nM | 1.95 µM | 17300 | > 100 µM | > 23300 | > 100 µM | > 100000 |  |  |  | 
N#Cc1c(N)n(C2OC(CO)C(O)C2O)c2ncnc(N)c12 (configuration not stated) |  | 2.39 µM |  |  |  | 0.156 µM | 0.263 µM |  |  |  | 2.45 µM | 145 | 0.509 µM |  | 1.81 µM | 89.1 | > 100 µM |  |  | 
CCOc1cccc2sc(N)nc12 |  | > 100 µM |  | > 100 µM |  | > 100 µM | > 100 µM |  | > 100 µM |  | > 100 µM |  | > 100 µM |  | > 100 µM |  | > 100 µM |  |  | 
CN1C(=O)C(C)(C)NS1(=O)=O |  | > 100 µM |  | > 100 µM |  | > 100 µM | > 100 µM |  | > 100 µM |  | > 100 µM |  | > 100 µM |  | > 100 µM |  | > 100 µM |  |  | 
CO[C@H](C(=O)O[C@H]1C(=O)N2CCC3CCC1C32C)c1ccccc1 (some centres not stated) |  | > 100 µM |  | > 100 µM |  | > 100 µM | > 100 µM |  | > 100 µM |  | > 100 µM |  | > 100 µM |  | > 100 µM |  | > 100 µM |  |  | 
CC(C)COC(=O)N1N=NC2C3CC(=O)C(O3)C21 (configuration not stated) |  | > 100 µM |  | > 100 µM |  | > 100 µM | > 100 µM |  | > 100 µM |  | > 100 µM |  | > 100 µM |  | > 100 µM |  | > 100 µM |  |  | 
O=C1C2=C(C(=O)c3c(O)ccc(O)c31)N(c1cccnc1)Cc1ccccc1O2 | 2290 | 6.64 µM | 3.52 | 12.8 µM |  |  | 0.421 µM | 2850 | 19.9 µM | 2430 nM | 8.4 µM | 1520 | 3.23 µM | 650 | 2 µM | 1150 | 5.74 µM | 1180 | 103 | 398
C/C(=N\NC(=O)C[n+]1ccccc1)c1sc(-c2nc(C)c(/C(C)=N/NC(=O)C[n+]3ccccc3)s2)nc1C |  | > 100 µM |  | > 100 µM |  | > 100 µM | > 100 µM |  | > 100 µM |  | > 100 µM |  | > 100 µM |  | > 100 µM |  | > 100 µM |  |  | 
CC1OC(OC23C(=O)CC(C)(O)CC2(O)C=CC2=C3C(=O)c3ccc(C4CC(OC5CCC(OC6CC(O)C(O)C(C)O6)C(C)O5)C(O)C(C)O4)c(O)c3C2=O)CCC1O (configuration not stated) |  | 79.4 µM and 41.4 µM |  | 86.2 µM and 46 µM | 15900 nM and 2860 nM | 29.8 µM and 9.07 µM | 33.5 µM and 34.5 µM |  | 82.1 µM and 65.2 µM | 16500 nM and 3060 nM | 30.4 µM and 9.87 µM |  | 31.1 µM and 27.3 µM |  | 31.4 µM and 31.2 µM |  | 32.7 µM and 31.7 µM |  |  | 
COc1ccc(-c2c(-c3cc4c(c(OC)c3OC)OCO4)noc2N)cc1 | 457 | > 100 µM | 0.34 | 14.3 µM | 184 nM | 0.812 µM | > 100 µM | 544 | > 100 µM | 275 nM | > 100 µM | 575 | 6.96 µM | 745 | > 95.8 µM |  | > 100 µM | 4120 | 404 | 
